Laboratory results from patent US10995150B2, “Methods for inhibiting atherosclerosis by administering an anti-PCSK9 antibody” (REGENERON PHARMACEUTICALS, INC., priority 2013, dated 2021).

Columns and labels:
APOE*3Leiden.CETP mice [1] = experiment: Total plaque load in the aortic arch (oil-red O); format: in vivo, mouse; settings: mAb316P 10 mg/kg, alone or + atorvastatin 3.6 mg/kg/d; 18 weeks
Source text: Hearts were isolated, fixed in formalin, and embedded in paraffin. Cross-sections (5 μm each) of the entire aortic root area were stained with hematoxylin-phloxin-saffron. For each mouse, four sections at intervals of 50 μm were used for quantitative and qualitative assessment of the atherosclerotic lesions. To determine atherosclerotic lesion size and severity, the lesions were classified into five categories according to the American Heart Association classification: I) early fatty streak, II) regular fatty streak, III) mild plaque, IV) moderate plaque, and V) severe plaque. Total lesion area and number of lesions per cross-section, as well as the percentage undiseased segments, were calculated. To assess lesion severity as a percentage of all lesions, type I-Ill lesions were classified as mild lesions, and type IV-V lesions were classified as severe lesions. […] Data were normalized for analyzed surface area and expressed as percentage of the stained area. Photos/images were taken with the Olympus BX51 microscope and lesion areas were measured using Cell D imaging software (Olympus Soft Imaging Solutions).

hepatic LDLR protein = experiment: Hepatic LDLR protein levels (Western blot); format: in vivo, mouse; settings: alone or + atorvastatin 3.6 mg/kg/d, 18 weeks
Experimental: Liver tissues were homogenized in lysis buffer (50 mM Tris-HCL [pH=7.4], 150 mM NaCl, 0.25% deoxycholic acid, 1% NP-40 [Igepal], 1 mM EDTA, protease inhibitor cocktail [complete, Roche], 1 mM PMSF, 1 mM Na3VO4) and then centrifuged at 6500 rpm at 4° C. for 30 minutes. Protein concentration in cell lysates was determined by bicinchonic acid protein assay (Thermo Scientific) according to manufacturer's instructions. 50 μg of protein lysates was separated by SDS-PAGE and then transferred to polyvinylidene fluoride membranes (Millipore). Blots were subjected to goat anti-mouse LDLR from R&D Systems and rabbit anti-goat horseradish peroxidase (HRP) from AbD Serotec or mouse anti-α-Tubulin from Sigma and horse anti-mouse HRP from Cell Signaling Technologies (according to the manufacturer's instructions); blots were developed with West Femto Super Signal ECL (Thermo Scientific) and subjected to the Chemi-Doc-it imaging system. Intensities of protein bands were quantified using Image J software.

APOE*3Leiden.CETP mice [2] = experiment: Plasma total cholesterol, triglycerides and lipoprotein profiles; format: in vivo, mouse; settings: for TC reductions in lipoprotein profile (FPLC): lipoprotein separation by FPLC, FIG. 1C/1D; for average plasma TC, change compared to control: alone or + atorvastatin 3.6 mg/kg/d in diet
Source text: Ninety female APOE*3Leiden.CETP transgenic mice (9 to 13 weeks of age), expressing human CETP under control of its natural flanking regions, were used. During the study, mice were housed under standard conditions with a 12-hour light-dark cycle and had free access to food and water. Animal experiments were approved by the Institutional Animal Care and Use Committee of The Netherlands Organization for Applied Research.
Plasma was isolated from blood collected in ethylenediaminetetraacetic acid (EDTA)-coated cups via tail vein bleeding after a 4-hour fast every 2 to 4 weeks. Plasma TC and TG were determined using enzymatic kits according to the manufacturer's protocols (cat. no. 1458216 and cat. no. 1488872, respectively; Roche/Hitachi) and average plasma TC and TG levels were calculated. Lipoprotein profiles for TC were measured after lipoprotein separation by fast protein liquid chromatography (FPLC) after 4, 12, and 18 weeks of treatment. MAb316P levels were measured by a human Fc enzyme-linked immunosorbent assay.

APOE*3Leiden.CETP mice [3] = experiment: Flow cytometric analysis of white blood cells (PBMC); format: in vivo, mouse
Source text: After 8 weeks of treatment, peripheral blood mononuclear cells (PBMCs) were isolated from fresh blood samples and were sorted into GR-1+ (neutrophils/granulocytes), GR-1− (lymphocytes/monocytes), CD3+ (T-cells), CD19+ (B-cells) and CD11b+/Ly6C^low and CD11b+/Ly6C^hi (monocytes) cells using flow cytometric (FACS) analysis. The following conjugated monoclonal antibodies were used from Becton Dickinson: GR-1 FITC, CD3 PerCpCy5-5, CD19 V450, CD11b APC and Ly6C PE-Cy7.

APOE*3Leiden.CETP mice [4] = experiment: Histological assessment of atherosclerosis in the aortic root; format: in vivo, mouse; settings: 18 weeks; for lesion severity (severe type IV-V lesions) compared with the control / lesion-free sections / undiseased segments compared with the control: dose of mAb316P not specified
Source text: Hearts were isolated, fixed in formalin, and embedded in paraffin. Cross-sections (5 μm each) of the entire aortic root area were stained with hematoxylin-phloxin-saffron. For each mouse, four sections at intervals of 50 μm were used for quantitative and qualitative assessment of the atherosclerotic lesions. To determine atherosclerotic lesion size and severity, the lesions were classified into five categories according to the American Heart Association classification: I) early fatty streak, II) regular fatty streak, III) mild plaque, IV) moderate plaque, and V) severe plaque. Total lesion area and number of lesions per cross-section, as well as the percentage undiseased segments, were calculated. To assess lesion severity as a percentage of all lesions, type I-Ill lesions were classified as mild lesions, and type IV-V lesions were classified as severe lesions. To determine the total plaque load in the thoracic aorta, perfusion-fixed aortas (from the aortic origin to the diaphragm) were cleaned of extravascular fat, opened longitudinally, pinned en face, and stained for lipids with oil-red O as described previously by Verschuren et al. (Arterioscler Thromb Vasc Biol. 2005; 25:161-167). Data were normalized for analyzed surface area and expressed as percentage of the stained area. Photos/images were taken with the Olympus BX51 microscope and lesion areas were measured using Cell D imaging software (Olympus Soft Imaging Solutions).

APOE*3Leiden.CETP mice [5] = experiment: Liver weight and hepatic lipid analysis; settings: atorvastatin 3.6 mg/kg/d alone; 18 weeks
Source text: Mice received a semi-synthetic cholesterol-rich diet, containing 15% (w/w) cacao butter and 0.15% cholesterol (Western-type diet [WTD]; Hope Farms, Woerden, The Netherlands) for a run-in period of 3 weeks to increase plasma total cholesterol (TC) levels up to ˜15 mmol/L. Body weight (BW) and food intake were monitored regularly during the study. […] At the end of the treatment period, all animals were sacrificed by CO2 inhalation. Livers and hearts were isolated to assess hepatic LDLR protein levels, lipid content, atherosclerosis development, and plaque composition.
Liver tissue samples were homogenized in phosphate-buffered saline, and the protein content was measured. Lipids were extracted, separated by high-performance thin-layer chromatography on silica gel plates, and analyzed with TINA2.09 software (Raytest Isotopen Messgerate Straubenhardt, Germany), as previously described by Post et al. (Hepatology. 1999; 30:491-500).

[6] = mAb316P 3 mg/kg weekly s.c., 18 weeks
[7] = mAb316P 10 mg/kg weekly s.c., 18 weeks
[8] = 10 mg/kg MAb316P and/or atorvastatin, after 8 weeks of treatment, mean ± SD
[9] = mAb316P 10 mg/kg, alone or + atorvastatin, 8 weeks
[10] = mAb316P 3 mg/kg weekly s.c., alone or + atorvastatin 3.6 mg/kg/d
[11] = mAb316P 10 mg/kg weekly s.c., alone or + atorvastatin 3.6 mg/kg/d

For “mAb316P: human anti-PCSK9 antibody; HCVR SEQ ID NO:1, LCVR SEQ ID NO:6”, the “total plaque area in the aortic arch, change vs control” value (APOE*3Leiden.CETP mice [1]) was −67%, the “Hepatic LDLR protein levels, change vs control” value (hepatic LDLR protein; mAb316P 3 mg/kg weekly s.c.) was “+80%” and the “Hepatic LDLR protein levels, change vs control” value (hepatic LDLR protein; mAb316P 10 mg/kg weekly s.c.) was “+133%”. The “TC, 3 mg mAb316P versus 10 mg mAb316P (dose dependence)” value (APOE*3Leiden.CETP mice [2]; alone, or both with atorvastatin 3.6 mg/kg/d, 18 weeks) was −14%, the “TC reductions in lipoprotein profile (FPLC)” value (APOE*3Leiden.CETP mice [2]) was “confined to apoB-containing lipoproteins” and the “average plasma TC, change compared to control” value (APOE*3Leiden.CETP mice [2]; [6]) was −37%. For the same compound, the “average plasma TG, change compared to control” value (APOE*3Leiden.CETP mice [2]; [6]) was −33%, the “average plasma TC, change compared to control” value (APOE*3Leiden.CETP mice [2]; [7]) was −46% and the “average plasma TG, change compared to control” value (APOE*3Leiden.CETP mice [2]; [7]) was −39%. For the same compound, the B-cells (APOE*3Leiden.CETP mice [3]; [8]) was 66.3 ± 15.0 % of PBMC population, the “CD11b+ Ly6C^hi” value (APOE*3Leiden.CETP mice [3]; [8]) was 57.5 ± 8.4 % of monocytes and the “CD11b+ Ly6C^low” value (APOE*3Leiden.CETP mice [3]; [8]) was 40.0 ± 8.0 % of monocytes. For the same compound, the Lymphocytes/Monocytes (APOE*3Leiden.CETP mice [3]; [8]) was 92.9 ± 2.0 % of PBMC population, the Monocytes (APOE*3Leiden.CETP mice [3]; [8]) was 8.9 ± 2.5 % of PBMC population and the Neutrophils/Granulocytes (APOE*3Leiden.CETP mice [3]; [8]) was 7.1 ± 2.0 % of PBMC population. For the same compound, the “anti-inflammatory Ly6C^low monocytes, change vs control” value (APOE*3Leiden.CETP mice [3]; [9]) was “+12%”, the “granulocytes/neutrophils (as % of PBMC population), change vs control” value (APOE*3Leiden.CETP mice [3]; [9]) was −20% and the “monocytes (as % of PBMC population), change vs control” value (APOE*3Leiden.CETP mice [3]; [9]) was −28%. The “pro-inflammatory Ly6C^hi monocytes, change vs control” value (APOE*3Leiden.CETP mice [3]; [9]) was −8%, the “lesion severity (severe type IV-V lesions) compared with the control” value (APOE*3Leiden.CETP mice [4]) was “fewer severe (type IV-V) lesions” and the “lesion-free sections / undiseased segments compared with the control” value (APOE*3Leiden.CETP mice [4]) was “more lesion-free sections”. The “atherosclerotic lesion size (aortic root), change compared to the control” value (APOE*3Leiden.CETP mice [4]; [10]) was −71%, the “number of lesions per cross-section, change compared to the control” value (APOE*3Leiden.CETP mice [4]; [10]) was −17% and the “atherosclerotic lesion size (aortic root), change compared to the control” value (APOE*3Leiden.CETP mice [4]; [11]) was −88%. For the same compound, the “number of lesions per cross-section, change compared to the control” value (APOE*3Leiden.CETP mice [4]; [11]) was −30%.
`CC(C)c1c(C(=O)Nc2ccccc2)c(-c2ccccc2)c(-c2ccc(F)cc2)n1CC[C@@H](O)C[C@@H](O)CC(=O)O` [atorvastatin, reference compound] was tested, and the “TC reductions in lipoprotein profile (FPLC)” value (APOE*3Leiden.CETP mice [2]) was “confined to apoB-containing lipoproteins”, the B-cells (APOE*3Leiden.CETP mice [3]; [8]) was 69.5 ± 17.4 % of PBMC population and the “CD11b+ Ly6C^hi” value (APOE*3Leiden.CETP mice [3]; [8]) was 51.2 ± 6.4 % of monocytes. For the same compound, the “CD11b+ Ly6C^low” value (APOE*3Leiden.CETP mice [3]; [8]) was 47.8 ± 6.3 % of monocytes, the Lymphocytes/Monocytes (APOE*3Leiden.CETP mice [3]; [8]) was 94.9 ± 1.6 % of PBMC population and the Monocytes (APOE*3Leiden.CETP mice [3]; [8]) was 5.3 ± 2.4 % of PBMC population. The Neutrophils/Granulocytes (APOE*3Leiden.CETP mice [3]; [8]) was 5.1 ± 1.6 % of PBMC population, the T-cells (APOE*3Leiden.CETP mice [3]; [8]) was 17.0 ± 4.8 % of PBMC population and the “liver weight, change compared to the control group” value (APOE*3Leiden.CETP mice [5]) was −15%. For the same compound, the “lesion severity (severe type IV-V lesions) compared with the control” value (APOE*3Leiden.CETP mice [4]) was “reduced severity to a lesser extent”, the “lesion-free sections / undiseased segments compared with the control” value (APOE*3Leiden.CETP mice [4]) was “no effect” and the “atherosclerotic lesion size (aortic root), change compared to the control” value (APOE*3Leiden.CETP mice [4]; atorvastatin 3.6 mg/kg/d alone) was −35%. For the same compound, the “effect on the number of lesions” value (APOE*3Leiden.CETP mice [4]; atorvastatin 3.6 mg/kg/d alone) was “no effect”.
